{"source": "ChEMBL document CHEMBL4028816", "about": "“Discovery of a potent inhibitor of MELK that inhibits expression of the anti-apoptotic protein Mcl-1 and TNBC cell growth” (Bioorg Med Chem, 2017)", "key": {"[1]": {"biological_target": "AMP-activated protein kinase, AMPK", "experiment": "Inhibition of AMPK (unknown origin) using SAMS peptide as substrate measured after 30 mins in presence of [gamma32P]ATP by liquid scintillation counting method", "set-up": "species or system Homo sapiens"}, "[2]": {"biological_target": "Mitogen-activated protein kinase 1 (Homo sapiens, UniProt P28482)", "sequence (P28482 whole entry)": "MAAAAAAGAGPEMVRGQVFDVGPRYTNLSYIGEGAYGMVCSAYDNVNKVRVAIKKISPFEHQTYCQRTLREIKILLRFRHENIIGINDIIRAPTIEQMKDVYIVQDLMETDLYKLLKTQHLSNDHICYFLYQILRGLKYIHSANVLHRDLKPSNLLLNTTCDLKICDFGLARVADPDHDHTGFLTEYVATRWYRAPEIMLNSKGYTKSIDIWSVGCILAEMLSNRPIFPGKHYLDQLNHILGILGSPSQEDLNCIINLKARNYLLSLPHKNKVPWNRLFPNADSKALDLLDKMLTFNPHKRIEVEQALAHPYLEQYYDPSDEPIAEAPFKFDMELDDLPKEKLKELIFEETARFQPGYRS", "experiment": "Inhibition of ERK2 (unknown origin) using Ets-1 as substrate measured after 30 mins in presence of [gamma32P]ATP by liquid scintillation counting method"}, "[3]": {"biological_target": "Maternal embryonic leucine zipper kinase (Homo sapiens, UniProt Q14680)", "sequence (Q14680 whole entry, the tested form may be a part)": "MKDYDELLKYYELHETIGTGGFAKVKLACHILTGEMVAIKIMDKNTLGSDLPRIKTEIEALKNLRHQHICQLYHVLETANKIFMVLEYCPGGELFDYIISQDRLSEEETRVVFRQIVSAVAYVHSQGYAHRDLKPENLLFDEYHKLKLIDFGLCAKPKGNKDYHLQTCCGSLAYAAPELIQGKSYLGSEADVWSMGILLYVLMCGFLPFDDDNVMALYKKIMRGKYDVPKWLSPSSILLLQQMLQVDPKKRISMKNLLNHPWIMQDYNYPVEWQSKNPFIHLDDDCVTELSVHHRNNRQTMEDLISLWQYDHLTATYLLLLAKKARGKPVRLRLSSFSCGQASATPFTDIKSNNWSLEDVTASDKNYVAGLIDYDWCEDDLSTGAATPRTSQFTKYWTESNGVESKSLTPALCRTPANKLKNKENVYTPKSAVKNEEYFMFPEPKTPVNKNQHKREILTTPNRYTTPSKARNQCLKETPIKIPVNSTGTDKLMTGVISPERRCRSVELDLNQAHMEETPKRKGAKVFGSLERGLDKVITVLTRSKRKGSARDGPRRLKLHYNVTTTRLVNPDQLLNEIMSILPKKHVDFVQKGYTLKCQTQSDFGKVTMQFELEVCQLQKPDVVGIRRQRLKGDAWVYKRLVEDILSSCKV", "experiment": "Inhibition of His6-tagged MELK catalytic domain (1 to 340 residues) (unknown origin) expressed in Escherichia coli BL21 (DE3) cells using Bcl-GL as substrate measured after 30 mins in presence of [gamma32P]ATP by liquid scintillation counting method"}, "[4]": {"tested_on": "HCC70", "experiment": "Antiproliferative activity against human HCC70 cells up to 20 uM after 72 hrs by CellTitre-Blue assay", "format": "functional, cell-based"}, "[5]": {"tested_on": "BT-549", "experiment": "Antiproliferative activity against human BT549 cells up to 20 uM after 72 hrs by CellTitre-Blue assay", "format": "functional, cell-based"}, "[6]": {"tested_on": "MCF-10A", "experiment": "Antiproliferative activity against human MCF10A cells at 10 uM after 72 hrs by CellTitre-Blue assay", "format": "functional, cell-based"}, "[7]": {"tested_on": "SUM-159-PT", "experiment": "Antiproliferative activity against human SUM159 cells up to 20 uM after 72 hrs by CellTitre-Blue assay", "format": "functional, cell-based"}}, "note": "The source made the active and inactive calls. The rule behind the calls is not given here.", "data": [{"compound": "CN1CCN(CC(=O)N(C)c2ccc(N/C(=C3\\C(=O)Nc4ccc(C(=O)O)cc43)c3ccccc3)cc2)CC1", "values": [{"measurement": "Ki", "setting": "[1]", "result": 4.9, "unit": "nM"}, {"measurement": "Ki", "setting": "[2]", "result": 19000, "unit": "nM"}]}, {"compound": "CN1CCN(CC(=O)N(C)c2ccc(N/C(=C3\\C(=O)Nc4cc(C(=O)NCCCN)ccc43)c3ccccc3)cc2)CC1", "values": [{"measurement": "IC50", "setting": "[3]", "result": "> 5000", "unit": "nM"}, {"measurement": "Ki", "setting": "[3]", "result": "> 650", "unit": "nM"}]}, {"compound": "COC(=O)c1ccc2c(c1)/C(=C(/Nc1ccc(N(C)C(=O)CN3CCN(C)CC3)cc1)c1ccccc1)C(=O)N2", "values": [{"measurement": "Ki", "setting": "[1]", "result": 9.2, "unit": "nM"}, {"measurement": "Activity", "setting": "[4]", "result": "Active"}, {"measurement": "Activity", "setting": "[5]", "result": "Active"}, {"measurement": "Activity", "setting": "[6]", "result": "inactive"}, {"measurement": "Ki", "setting": "[2]", "result": 3000, "unit": "nM"}, {"measurement": "Activity", "setting": "[7]", "result": "Active"}]}, {"compound": "CN1CCN(CC(=O)N(C)c2ccc(N/C(=C3\\C(=O)Nc4ccccc43)c3ccccc3)cc2)CC1", "values": [{"measurement": "Ki", "setting": "[1]", "result": 4.2, "unit": "nM"}]}]}
